Test results from patent publication US20250019389A1, “HETEROCYCLIC AGONISTS” (Gasherbrum Bio, Inc., priority 2023, published 2025).

Each compound was assayed against GLP-1 Receptor (Homo sapiens (Human), UniProt P43220) (assay: GLP-1R agonist cAMP stimulation assay). Settings: cAMP stimulation in HEK293/GLP1R/CRE-LUC cells, 30 min at 37° C., cAMP dynamic 2 Kit (Cisbio).
Type: cell-based
Method: Activation of GLP-1 receptor is known to stimulate cyclic AMP (cAMP) production in cells which indicates primary coupling to the G as subunit of the G protein heterotrimeric complex.
To optimize functional activity directed toward G αs coupling, a HEK293/CRE-Luc cell line developed by HDB stably expressing the GLP-1 Receptor was used. 200× concentration of compound working solutions were prepared (Agilent Technologies Bravo) with ½ log serial dilution in 384-well Echo LDV plate (Labcyte, Cat #LP-0200). 50 nL/well 200× concentration of compound working solutions were moved to 384-well white low volume plate (Greiner, Cat #784075) using Labcyte ECH0550.1×10^5 cells/mL HEK293/GLP1R/CRE-LUC (HD Biosciences) cell suspensions prepared with assay buffer [DPBS containing 0.5 mM IBMX (Sigma, Cat #I5879) and 0.1% BSA (GENVIEW, Cat #FA016-100 g)], 10 μL cell suspensions were added to each well of previous generated assay plate which already contains 50 nL compound at 200× concentration using ThermoFisher Multidrop Combi (1000 cells/well). Seal the plate and incubate at 37° C. with 5% CO2 for 30 min.
After incubation the cAMP assay signal was generated using cAMP dynamic 2 Kit (Cisbio). 5 μL cAMP-d2 working solution was added to each well, followed with 5 μL Anti-cAMP antibody-cryptate working solution added to each well using ThermoFisher Multidrop Combi. Incubate at room temperature for 1 hour protected from light. Read the fluorescence at 665 and 615 nm with Reader PerkinElmer EnVision.

GLP-1 Receptor, sequence (P43220 24-463, species assumed): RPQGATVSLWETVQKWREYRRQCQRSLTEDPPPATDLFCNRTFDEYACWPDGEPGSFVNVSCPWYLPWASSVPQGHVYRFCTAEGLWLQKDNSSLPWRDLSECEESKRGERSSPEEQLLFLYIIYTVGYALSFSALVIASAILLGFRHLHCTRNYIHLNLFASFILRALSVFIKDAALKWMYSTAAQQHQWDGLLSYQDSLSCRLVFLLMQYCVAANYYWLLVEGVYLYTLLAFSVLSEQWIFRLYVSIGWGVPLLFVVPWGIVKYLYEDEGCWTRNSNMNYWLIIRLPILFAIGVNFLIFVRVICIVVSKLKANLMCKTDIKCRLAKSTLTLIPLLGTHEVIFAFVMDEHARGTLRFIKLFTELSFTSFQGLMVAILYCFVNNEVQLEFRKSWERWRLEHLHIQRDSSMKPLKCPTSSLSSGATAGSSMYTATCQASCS

Compound | EC50
CCP(=O)(CCO)c1ccc(-n2ccn(-c3c4c(nn3-c3cc(C)c(F)c(C)c3)CCN(C(=O)c3cc5cc(C6CCOCC6)ccc5n3[C@@]3(c5noc(=O)[nH]5)C[C@@H]3C)[C@H]4C)c2=O)cc1NC (single isomer, unassigned) [Compound 103] | 0.012 nM
CCP(=O)(c1ccc(-n2ccn(-c3c4c(nn3-c3cc(C)c(F)c(C)c3)CCN(C(=O)c3cc5cc(C6CCOCC6)ccc5n3[C@@]3(c5noc(=O)[nH]5)C[C@@H]3C)[C@H]4C)c2=O)cc1NC)C(C)O (single isomer, unassigned) [Compound 106] | 0.029 nM
CCP(=O)(CCO)c1ccc(-n2ccn(-c3c4c(nn3-c3cc(C)c(F)c(C)c3)CCN(C(=O)c3cc5cc(C6CCOCC6)ccc5n3[C@@]3(c5noc(=O)[nH]5)C[C@@H]3C)[C@H]4C)c2=O)cc1NC (single isomer, unassigned) [Compound 102] | 0.017 nM
CCP(=O)(c1ccc(-n2ccn(-c3c4c(nn3-c3cc(C)c(F)c(C)c3)CCN(C(=O)c3cc5cc(C6CCOCC6)ccc5n3[C@@]3(c5noc(=O)[nH]5)C[C@@H]3C)[C@H]4C)c2=O)cc1NC)C(C)O (single isomer, unassigned) [Compound 105] | 0.035 nM
CCP(=O)(c1ccc(-n2ccn(-c3c4c(nn3-c3cc(C)c(F)c(C)c3)CCN(C(=O)c3cc5cc(C6CCOCC6)ccc5n3[C@@]3(c5noc(=O)[nH]5)C[C@@H]3C)[C@H]4C)c2=O)cc1NC)C(C)O (single isomer, unassigned) [Compound 107] | 0.042 nM
CCP(=O)(c1ccc(-n2ccn(-c3c4c(nn3-c3cc(C)c(F)c(C)c3)CCN(C(=O)c3cc5cc(C6CCOCC6)ccc5n3[C@@]3(c5noc(=O)[nH]5)C[C@@H]3C)[C@H]4C)c2=O)cc1NC)C(C)O (single isomer, unassigned) [Compound 108] | 0.031 nM
